From patent US6737383B1, “Herbicidal oxadiazolidines” (priority 1999, dated 2004)

Key:
[1] = test system: bedstraw; assay: Test B pre/postemergence bedstraw; assay type: in vivo, Galium aparine
Procedure, shortened: (§1)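 Response is a visual 0-to-10 score relative to untreated plants, where 0 means no effect and 10 means complete control, taken twelve to sixteen days after application. Treatments went onto soil at planting and onto foliage of 1- to 4-leaf plants, using a surfactant-containing non-phytotoxic solvent.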

[2] = test system: blackgrass; assay: Test B pre/postemergence blackgrass; assay type: in vivo, Alopecurus myosuroides
Procedure, shortened: as §1

[3] = test system: giant foxtail; assay: Test B pre/postemergence giant foxtail; assay type: in vivo, Setaria faberii
Procedure, shortened: as §1

[4] = test system: morningglory; assay: Test B pre/postemergence morningglory; assay type: in vivo, Ipomoea hederacea
Procedure, shortened: as §1

[5] = test system: pigweed; assay: Test B pre/postemergence pigweed; assay type: in vivo, Amaranthus retroflexus
Procedure, shortened: as §1

[6] = test system: rape; assay: Test B pre/postemergence rape; assay type: in vivo, Brassica napus
Procedure, shortened: as §1

[7] = test system: soybean; assay: Test B pre/postemergence soybean; assay type: in vivo, Glycine max
Procedure, shortened: as §1

[8] = test system: sugar beet; assay: Test B pre/postemergence sugar beet; assay type: in vivo, Beta vulgaris
Procedure, shortened: as §1

[9] = test system: velvetleaf; assay: Test B pre/postemergence velvetleaf; assay type: in vivo, Abutilon theophrasti
Procedure, shortened: as §1

[10] = test system: wheat; assay: Test B pre/postemergence wheat; assay type: in vivo, Triticum aestivum
Procedure, shortened: as §1

[11] = test system: wild oat; assay: Test B pre/postemergence wild oat; assay type: in vivo, Avena fatua
Procedure, shortened: as §1

[12] = test system: purple nutsedge; assay: Test B pre/postemergence purple nutsedge; assay type: in vivo, Cyperus rotundus; conditions: Preemergence
Procedure, shortened: as §1

[13] = test system: rice; assay: Test B flood test rice; assay type: in vivo, Oryza sativa
Procedure, shortened: (§2)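 Flood test on plants grown to the 2-leaf stage; treated plants kept in greenhouse twelve to sixteen days, then visually rated against controls on a 0 (no effect) to 10 (complete control) scale.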

[14] = test system: smallflower flatsedge; assay: Test B flood test smallflower flatsedge; assay type: in vivo, Cyperus difformis
Procedure, shortened: as §2

[15] = test system: duck salad; assay: Test B flood test duck salad; assay type: in vivo, Heteranthera limosa
Procedure, shortened: as §2

[16] = test system: bamyardgrass; assay: Test B flood test barnyardgrass; assay type: in vivo, Echinochloa crus-galli
Procedure, shortened: as §2

[17] = Postemergence, Rate 250 g/ha, scale 0 to 10, 0 no effect, 10 complete control
[18] = Postemergence, Rate 1000 g/ha, scale 0 to 10 (0 no effect, 10 complete control)
[19] = Preemergence, Rate 125 g/ha, scale 0 to 10 (0 no effect, 10 complete control)
[20] = Preemergence, Rate 250 g/ha, scale of 0 to 10 where 0 is no effect and 10 is complete control
[21] = Preemergence, Rate 500 g/ha, scale 0 (no effect) to 10 (complete control)
[22] = Rate 125 g/ha, Postemergence, scale 0 to 10, 0 no effect, 10 complete control
[23] = Rate 500 g/ha, Postemergence, 0 to 10 scale (0 no effect, 10 complete control)
[24] = Rate 1000 g/ha, Preemergence, scale 0 to 10 (0 no effect, 10 complete control)
[25] = Rate 125 g/ha, Postemergence section (flood test species), scale 0 to 10, 0 no effect, 10 complete control
[26] = Rate 250 g/ha, headed Pre-emergence (flood test species), scale 0 to 10 (0 no effect, 10 complete control)
[27] = Rate 500 g/ha, Postemergence section of Table B, 0 to 10 scale (0 no effect, 10 complete control)
[28] = Rate 500 g/ha, headed Pre-emergence (flood test species), scale 0 to 10 (0 no effect, 10 complete control)
[29] = Rate 1000 g/ha, Pre-emergence (as headed), scale 0 to 10
[30] = Rate 2000 g/ha, Pre-emergence (as headed), scale 0 to 10
[31] = flood test, listed under Postemergence, Rate 250 g/ha, scale 0 to 10, 0 no effect, 10 complete control

CC(C)N(C(=O)n1oc(=O)n(-c2ccc(Cl)cc2Cl)c1=O)c1ccc(F)cc1 [Compound 7, 4-(2,4-Dichlorophenyl)-N-(4-fluorophenyl)-N-(1-methylethyl)-3,5-dioxo-1,2,4-oxadiazolidine-2-carboxamide]
Bedstraw plant response rating [1, 17]: 0
Bedstraw plant response rating [1, 18]: 4
Plant response rating, Bedstraw [1, 19]: 0
Plant response rating, Bedstraw [1, 20]: 0
Bedstraw plant response rating [1, 21]: 0
Bedstraw plant response rating [1, 22]: 0
Bedstraw plant response rating [1, 23]: 0
Plant response rating, Bedstraw [1, 24]: 0
Blackgrass plant response rating [2, 17]: 2
Blackgrass plant response rating [2, 18]: 6
Plant response rating, Blackgrass [2, 19]: 0
Plant response rating, Blackgrass [2, 20]: 0
Blackgrass plant response rating [2, 21]: 0
Blackgrass plant response rating [2, 22]: 0
Blackgrass plant response rating [2, 23]: 3
Plant response rating, Blackgrass [2, 24]: 2
Giant foxtail plant response rating [3, 17]: 3
Giant foxtail plant response rating [3, 18]: 6
Plant response rating, Giant foxtail [3, 19]: 2
Plant response rating, Giant foxtail [3, 20]: 5
Giant foxtail plant response rating [3, 21]: 8
Giant foxtail plant response rating [3, 22]: 0
Giant foxtail plant response rating [3, 23]: 5
Plant response rating, Giant foxtail [3, 24]: 9
Morningglory plant response rating [4, 18]: 3
Plant response rating, Morningglory [4, 19]: 0
Plant response rating, Morningglory [4, 20]: 0
Morningglory plant response rating [4, 21]: 0
Morningglory plant response rating [4, 22]: 0
Morningglory plant response rating [4, 23]: 0
Plant response rating, Morningglory [4, 24]: 0
Redroot pigweed plant response rating [5, 17]: 0
Redroot pigweed plant response rating [5, 18]: 0
Plant response rating, Redroot pigweed [5, 19]: 0
Plant response rating, Redroot pigweed [5, 20]: 0
Redroot pigweed plant response rating [5, 21]: 0
Redroot pigweed plant response rating [5, 22]: 0
Redroot pigweed plant response rating [5, 23]: 0
Plant response rating, Redroot pigweed [5, 24]: 2
Rape plant response rating [6, 17]: 0
Rape plant response rating [6, 18]: 0
Plant response rating, Rape [6, 19]: 0
Plant response rating, Rape [6, 20]: 0
Rape plant response rating [6, 21]: 0
Rape plant response rating [6, 22]: 0
Rape plant response rating [6, 23]: 0
Plant response rating, Rape [6, 24]: 0
Soybean plant response rating [7, 17]: 1
Soybean plant response rating [7, 18]: 5
Plant response rating, Soybean [7, 19]: 0
Plant response rating, Soybean [7, 20]: 0
Soybean plant response rating [7, 21]: 0
Soybean plant response rating [7, 22]: 0
Plant response rating, Soybean [7, 24]: 0
Sugarbeets plant response rating [8, 17]: 0
Sugarbeets plant response rating [8, 18]: 2
Plant response rating, Sugarbeets [8, 19]: 0
Plant response rating, Sugarbeets [8, 20]: 0
Sugarbeets plant response rating [8, 21]: 0
Sugarbeets plant response rating [8, 22]: 0
Plant response rating, Sugarbeets [8, 24]: 0
Velvetleaf plant response rating [9, 17]: 0
Velvetleaf plant response rating [9, 18]: 0
Plant response rating, Velvetleaf [9, 19]: 0
Plant response rating, Velvetleaf [9, 20]: 0
Velvetleaf plant response rating [9, 21]: 0
Velvetleaf plant response rating [9, 22]: 0
Plant response rating, Velvetleaf [9, 24]: 0
Wheat plant response rating [10, 17]: 0
Wheat plant response rating [10, 18]: 2
Plant response rating, Wheat [10, 19]: 0
Plant response rating, Wheat [10, 20]: 0
Wheat plant response rating [10, 21]: 0
Wheat plant response rating [10, 22]: 0
Plant response rating, Wheat [10, 24]: 0
Wild oats plant response rating [11, 17]: 0
Wild oats plant response rating [11, 18]: 3
Plant response rating, Wild oats [11, 19]: 0
Plant response rating, Wild oats [11, 20]: 0
Wild oats plant response rating [11, 21]: 0
Wild oats plant response rating [11, 22]: 0
Plant response rating, Wild oats [11, 24]: 0
Plant response rating, Nutsedge ([12]; Rate 125 g/ha, scale 0 to 10 (0 no effect, 10 complete control)): 0
Plant response rating, Nutsedge ([12]; Rate 250 g/ha, scale of 0 to 10 where 0 is no effect and 10 is complete control): 0
Nutsedge plant response rating ([12]; Rate 500 g/ha, scale 0 (no effect) to 10 (complete control)): 0
Plant response rating, Nutsedge ([12]; Rate 1000 g/ha, scale 0 to 10 (0 no effect, 10 complete control)): 0
Rice plant response rating [13, 18]: 0
Rice plant response rating [13, 25]: 0
Rice plant response rating [13, 26]: 0
Rice plant response rating [13, 27]: 0
Plant response rating, Rice [13, 28]: 0
Rice plant response rating [13, 29]: 0
Rice plant response rating [13, 30]: 0
Rice plant response rating [13, 31]: 0
S. Flatsedge plant response rating [14, 18]: 0
S. Flatsedge plant response rating ([14]; Pre-emergence, Rate 1000 g/ha, scale 0 to 10 (0 no effect, 10 complete control)): 0
S. Flatsedge plant response rating [14, 25]: 0
S. Flatsedge plant response rating [14, 26]: 0
Plant response rating, S. Flatsedge [14, 28]: 0
S. Flatsedge plant response rating [14, 30]: 0
S. Flatsedge plant response rating [14, 31]: 0
Ducksalad plant response rating [15, 18]: 0
Ducksalad plant response rating [15, 25]: 0
Ducksalad plant response rating [15, 26]: 0
Ducksalad plant response rating [15, 27]: 0
Plant response rating, Ducksalad [15, 28]: 0
Ducksalad plant response rating [15, 29]: 0
Ducksalad plant response rating [15, 30]: 0
Ducksalad plant response rating [15, 31]: 0
Barnyardgrass plant response rating [16, 18]: 0
Barnyardgrass plant response rating [16, 25]: 0
Barnyardgrass plant response rating [16, 26]: 0
Barnyardgrass plant response rating [16, 27]: 0
Plant response rating, Barnyardgrass [16, 28]: 0
Barnyardgrass plant response rating [16, 29]: 0
Barnyardgrass plant response rating ([16]; Rate 2000 g/ha, Pre-emergence (as headed), scale 0 to 10, 0 no effect, 10 complete control): 0
Barnyardgrass plant response rating [16, 31]: 0
